{"source": "patent EP0263968A2", "about": "“Use of opiate antagonists in the manufacture of agents for the diagnosis and therapy of hypothalamic function disorders” (Ferring Arzneimittel GmbH, priority 1986, dated 1988)", "key": {"Gonadotropine": {"system": "Gonadotropine", "test": "Diagnostic test: intravenous naloxone in secondary and primary amenorrhoea", "format": "in vivo", "excerpt": "Somit zeigt dieser diagnostische Test, daß bei den Fällen von sekundärer Amenorrhoe die Suppression der Gonadotropine im Serum auf einer erhöhten endogenen Opiataktivität beruht, die therapeutisch durch den längerfristigen Einsatz von Antagonisten gedämpft werden kann."}, "[1]": {"system": "Patientinnen mit hypothalamischer Amenorrhoe", "test": "Continuous naloxone infusion in patients with hypothalamic amenorrhoea", "format": "in vivo", "details": "duration 6 to 52 hours", "excerpt": "Im Rahmen der vorliegenden Erfindung wurden Untersuchungen an Patientinnen mit hypothalamischer Amenorrhoe durchgeführt. Diese Untersuchungen haben überraschenderweise gezeigt, daß durch die Gabe von Opiat-Antagonisten eine Zunahme von Frequenz und Amplitude der LH und FSH Sekretion erreicht wird. Es kann daher davon ausgegangen werden, daß die endogene GnRH Sekretion durch Opiat-Antagonisten vermehrt wird.\nBeispielsweise wurde Naloxon bei Patientinnen mit hypothalamischer Amenorrhoe infundiert. Die Infusionsdauer betrug 6 bis 52 Stunden."}, "[2]": {"details": "oral administration possible; cited from earlier work"}, "[3]": {"system": "Patientinnen mit hypothalamischer Amenorrhoe", "test": "Oral naltrexone treatment of patients with hypothalamic amenorrhoea (serial blood sampling, ultrasound)", "format": "in vivo", "method": "Die basale Gonadotropin Sekretion von Patientinnen, die an hypothalamischer Amenorrhoe litten, wurde durch Bestimmung von LH und FSH, Prolactin und Ovarien-Steroiden in Blutproben bewertet, die alle zehn Minuten während 24 Stunden entnommen wurden. Naltrexon wurde dann in einer Dosis von 50 mg pro Tag während 24 oder 28 Tagen verabreicht. 5 Tage und 14 Tage nach dem Beginn der Naltrexonverabreichung wurden wiederholte Blutproben entnommen. An den übrigen Tagen wurden täglich Blutproben entnommen und es wurde eine Ultraschalluntersuchung nach der Naltrexonverabreichung sowie einige Tage danach durchgeführt. Es wurden folgende Ergebnisse ermittelt:\nAuf die Verabreichung von Naltrexon folgte eine Zunahme der Frequenz und der Amplitude der pulsatielen Gonadotropin Sekretion sowie eine Zunahme der mittleren LH und FSH Serumkonzentration sowie der Entwicklung der Gonaden-Steroid Sekretion und der Follikel, was durch Ultraschall festgestellt wurde."}, "[4]": {"system": "Patientinnen mit normalem Zyklus", "test": "Naltrexone administration to patients with normal cycle", "format": "in vivo", "excerpt": "Es ergibt sich daher die Möglichkeit, Opiat-Antagonisten zur Diagnose und Therapie hypothalamischer Funktionsstörungen einzusetzen, insbesondere bei solchen, bei denen zu vermuten ist, daß eine Hemmung der entsprechenden Partialfunktion durch vermehrt gebildete Endorphine verursacht ist."}, "[5]": {"details": "50 mg per day for 24 or 28 days"}, "[6]": {"details": "patients with hypothalamic amenorrhoea"}}}
{"smiles": "C=CCN1CC[C@]23c4c5ccc(O)c4OC2C(=O)CC[C@@]3(O)[C@H]1C5", "note": "(some centres unmarked) [Naloxon, 17-Allyl-4,5-epoxy-3,14-dihydroxymorphinan-6-on]", "values": [{"measurement": "Anstieg der Gonadotropine", "setting": "Gonadotropine; some cases of primary amenorrhoea", "value": "nicht oder nur in wesentlich geringerem Ausmaß"}, {"measurement": "Anstieg der Gonadotropine", "setting": "Gonadotropine; some cases of secondary amenorrhoea", "value": "deutlichen Anstieg"}, {"measurement": "Frequenz und Amplitude der LH und FSH Sekretion", "setting": "[1]", "value": "deutliche Zunahme"}]}
{"smiles": "O=C1CC[C@@]2(O)[C@H]3Cc4ccc(O)c5c4[C@@]2(CCN3CC2CC2)C1O5", "note": "(some centres unmarked) [Naltrexon, 17-(Cyclopropylmethyl)-4,5-epoxy-3,14-dihydroxymorphinan-6-on]", "values": [{"measurement": "Verweildauer im Plasma", "setting": "[2]", "value": "lange Verweildauer im Plasma"}, {"measurement": "Frequenz und Amplitude der pulsatielen Gonadotropin Sekretion", "setting": "[3]; [5]", "value": "Zunahme"}, {"measurement": "mittlere LH und FSH Serumkonzentration", "setting": "[3]; [5]", "value": "Zunahme"}, {"measurement": "Patientinnen, die ovulierten", "setting": "[3]; 50 mg per day for 24 or 28 days, 3 patients", "value": "Eine von 3"}, {"measurement": "Menstruation nach Absetzen des Mittels", "setting": "[3]; 50 mg per day for 24 or 28 days, after withdrawal", "value": "Sämtliche Patientinnen menstruierten"}, {"measurement": "Entwicklung der Gonaden-Steroid Sekretion und der Follikel", "setting": "[3]; 50 mg per day for 24 or 28 days, follicles by ultrasound", "value": "Zunahme"}, {"measurement": "menstrueller Zyklus", "setting": "[3]; oral, patients with hypothalamic amenorrhoea", "value": "Normalisierung"}, {"measurement": "Gonadotropin-Sekretion", "setting": "[3]; [6]", "value": "Normalisierung"}, {"measurement": "Ovulation, Bildung eines Corpus luteum", "setting": "[3]; [6]", "value": "zur Ovulation und zur Bildung eines Corpus luteum"}, {"measurement": "Ablauf des Zyklus", "setting": "[4]", "value": "keinen Einfluß"}, {"measurement": "Sekretion der gonadotropen Hormone", "setting": "[4]", "value": "keinen Einfluß"}]}
